What all share (assay): ITC
Details in all cases: 40 mM NaCl, 5 mM MgCl2; 25 mM Tris-HCl pH 7.5, 25 °C; single-site model

Assay [1] concerns SAM-VI WT RNA (RNA, riboswitch) ACAACAGAAUGAACCAACGUAUCAUUGUGCCUUAUCCGCAAAAGGCGGGUAGGGCGAUAAGUCCGAAAGAGGGAUGAUAUG
For assay [2], the system named is SAM-VI AP RNA (RNA, riboswitch) CGUAUCAUUGUGCCUUAUCCGCAAAAGGCGGGUAGGGCGAUAAGUCCGAAAGAGGGAUGAUAUG
Assay [3] relates to SAM-VI M2 RNA (RNA, riboswitch) ACAACAGAAUGAACCAACGUAUCAUUGUGCCUUAUCCGCAAAAGGCGGGUAGGGCGAUAAGUCCGAAAGAGGGAUGAU

This is an account of results in article PMC11274715 (2024).

Molecules are shown by their SMILES.

What is called Kd is the equilibrium constant for the complex coming apart. Read a low Kd as a tighter complex. Regarding `C[S+](CC[C@H](N)C(=O)O)C[C@H]1O[C@@H](n2cnc3c(N)ncnc32)[C@H](O)[C@@H]1O` (stereo partly drawn), the affinity in assay [1] was 8.95 µM; in assay [2], 5.33 µM. The compound further showed a Kd in assay [3] of 419.95 µM.
